From patent publication US12344899B2, “Compositions and methods for therapeutics prescreening” (TECHNION RESEARCH & DEVELOPMENT FOUNDATION LIMITED, priority 2014, dated 2025)
“Also recorded” adds a separate entry of the source.

Assays:
[1] = test system: 4T1 breast cancer primary tumor; test: Barcoded nanoparticles with different drugs injected simultaneously i.v.; barcode levels in live/dead tumor cells (FIG. 8); assay type: in vivo, BALB/c mice; details: for therapeutic effect rated from barcode distribution / drug barcode levels in the dead cells in comparison to the live cells: tumor biopsy 48 hours later; for therapeutic effect rated from barcode distribution: FIGS. 8A-E; for drug barcode levels in the dead cells in comparison to the live cells: cells sorted live/dead
Experimental: Barcoded nanoparticles containing control compounds or different drugs: placebo (A), caffeine (B), Cisplatin (C), Doxorubicin (D) and Gemcitabine (E), were injected simultaneously intravenously to BALB/c mice bearing a primary tumor in the hind thigh. 48 hours later, enabling the particle to accumulate in the tumor and perform the therapeutic activity, a biopsy was taken from the tumor. The biopsy tissue was then dissociated into a single-cell suspension, and the cells were screened according to their viability (live/dead). […] (F) The potency of the drugs was calculated by dividing the number of barcodes extracted from dead cells by the number of barcodes extracted from live cells for each drug. The values are presented in logarithmic scale.
In vivo transfection: 100 μl of 10^6cells/ml of 4T1 (breast cancer) was injected subcutaneous to 10 weeks balb/c female mice. About […] later (when the primary tumor was massive enough), 100 μl of liposome solution was injected intravenous. 36 hrs later, the mouse was sacrificed and its organs (+tumor) were taken in ice for further steps.
In the present study, ovarian tumors are expanded in hESC teratomas in SCID/beige mice, as previously described (Burgos-Ojeda, ibid.). Barcoded nanoparticles loaded with anti-cancer drugs are administered intravenously. Evaluation of the therapeutic task of the nanoparticle is evaluated after 48 hours which enables accumulation in the tumor and carrying out a therapeutic task. […] Post-mortem histological evaluation of the tissue is used to study the tumor bio-distribution. A biopsy sample is then dissociated into a single-cell suspension and the cells are sorted, using antibodies, according to cell subpopulation (including, CD45, CD11B, F4/80, CD13, REST) and viability (live/dead).
Barcoded nanoparticles containing five different drugs or control compounds (FIG. 8 depicts Placebo, Caffeine, Cisplatin, Doxorubicin and Gemcitabine), were injected simultaneously intravenously to BALB/c mice bearing a primary tumor in the hind thigh. 48 hours later, a biopsy was taken from the tumor. The biopsy tissue was then dissociated into a single-cell suspension, and the cells were screened according to their viability (live/dead).

[2] = test system: 4T1 breast cancer tumor; test: Therapeutic treatment validating the barcoding analysis (FIG. 9); assay type: in vivo, mice; details: for proliferation index (anti-Ki67 immunohistochemistry): tumors extracted 24 days after starting treatment, 125 mg/kg Gemcitabine i.v. weekly
Source text: FIG. 9A-D. Therapeutic efficacy based on barcoding analysis. FIGS. 9A-B and D are bar graphs comparing tumor volume change between different therapeutic groups. Each group got a weekly dose of chemo drug Doxorubicin, Cisplatin, or Gemcitabine. The control group got saline. Representative tumor dimensions of each group. The tumor was extracted […] after starting the treatment. Tumor/Body weight of each group.
To validate the barcoding analysis of the three chemotherapeutic drugs—Doxorubicin, Cisplatin and Gemcitabine, therapeutic treatment was conducted. The experiment included 4 groups, each containing 6 mice. Each group was treated with single drug for 24 days, starting 10 days post tumor induction. Each dose was given intravenous once a week. Each group was treated with either 5 mg/kg of Doxorubicin, 6 mg/kg of Cisplatin, 125 mg/kg of Gemcitabine or 100 μl of saline as a control. Tumors volumes were measured with caliper and calculated as length/2*(width)^2. […] 24 days after starting the treatment, the tumor of each mouse was extracted for further analysis. […] The tumor weight parameter reflects the effectiveness of the drug to inhibit and damage the tumor growth. The body weight parameter reflects the influence of the drug on the body or how severe are the side effects of the drug. […] To check differences in the tissue level between the different groups, all the tumors were studied histologically. Tissue slides from the tumors were stained with hematoxylin and eosin. […] Additionally, tissue slides were immunohistochemically stained with rabbit monoclonal anti-Ki67 antibody (SP6; Thermo Scientific, Fremont, Calif.) to determine proliferation index (not shown).

[3] = 5 mg/kg Doxorubicin, 6 mg/kg Cisplatin

Row | Structure (SMILES) | therapeutic effect rated from barcode distribution ([1]; drug in barcoded nanoparticles) | drug barcode levels in the dead cells in comparison to the live cells [1] | proliferation index (anti-Ki67 immunohistochemistry) [2, 3] [%] | barcodes accumulated in the dead cells, more compare to the live cells ([1]; drug in barcoded nanoparticles, 48 hours, FIG. 8(E)) | tumor/body weight ratio ([2]; at sacrifice, FIG. 9(C), weekly i.v. dosing) | tumor volume change / tumor growth ([2]; i.v. once a week for 24 days, 5 mg/kg Doxorubicin, 6 mg/kg Cisplatin, 125 mg/kg Gemcitabine, FIG. 9(A))
1 | Cn1c(=O)c2c(ncn2C)n(C)c1=O [Caffeine] | almost no effect | – | – | – | – | –
2 | N.N.[Cl][Pt][Cl] [Cisplatin] | clear therapeutic effect | Elevated levels | 65 | – | – | –
3 | Nc1ccn([C@@H]2O[C@H](CO)[C@@H](O)C2(F)F)c(=O)n1 [Gemcitabine] | more effective than cisplatin; also recorded: most efficient drug | Elevated levels | 40 | 6,000 | minimum tumor/body weight ratio | significantly attenuated the growth of the tumors
4 | COc1cccc2c1C(=O)c1c(O)c3c(c(O)c1C2=O)C[C@@](O)(C(=O)CO)C[C@@H]3O[C@H]1C[C@H](N)[C@H](O)[C@H](C)O1 [Doxorubicin] | clear therapeutic effect | – | 90 | – | – | –
